According to patent US10961309B2, “Reducing systemic regulatory T cell levels or activity for treatment of disease and injury of the CNS” (Yeda Research and Development Co. Ltd, priority 2014, dated 2021):

How the values were obtained:
GFP+ mo-MΦ = assay: Homing of GFP+ mo-MΦ in AD-Tg/CX3CR1GFP/+ BM chimeras; type: in vivo, mouse
Method: Tissue processing and immunohistochemistry were performed on paraffin embedded sectioned mouse (6 μm thick) and human (10 μm thick) brains. For human ICAM-1 staining, primary mouse anti-ICAM (1:20 Abcam; ab2213) antibody was used. Slides were incubated for 10 min with 3% H2O2, and a secondary biotin-conjugated anti-mouse antibody was used, followed by biotin/avidin amplification with Vectastain ABC kit (Vector Laboratories). Subsequently, 3,3′-diaminobenzidine (DAB substrate) (Zytomed kit) was applied; slides were dehydrated and mounted with xylene-based mounting solution. For tissue stainings, mice were transcardially perfused with PBS prior to tissue excision and fixation. CP tissues were isolated under a dissecting microscope (Stemi DV4; Zeiss) from the lateral, third, and fourth ventricles of the brain. […] Microscopic analysis, was performed using a fluorescence microscope (E800; Nikon) or laser-scanning confocal microscope (Carl Zeiss, Inc.). The fluorescence microscope was equipped with a digital camera (DXM 1200F; Nikon), and with either a 20× NA 0.50 or 40× NA 0.75 objective lens (Plan Fluor; Nikon). […] For quantification of staining intensity, total cell and background staining was measured using ImageJ software (NIH), and intensity of specific staining was calculated, as previously described (Burgess et al, 2010). […]

[1] = tested on: soluble Aβ1-40 and Aβ1-42; assay: Soluble Aβ (sAβ) protein quantification by ELISA; type: in vivo, mouse; conditions: 3 weeks after 1 week ATRA treatment, AD-Tg mice
Method: Tissue homogenization and sAβ protein extraction was performed as previously described (Schmidt et al, 2005). Briefly, cerebral brain parenchyma was dissected and snap-frozen and kept at −80° C. until homogenization. Proteins were sequentially extracted from samples to obtain separate fractions containing proteins of differing solubility. Samples were homogenized in 10 volumes of ice-cold tissue homogenization buffer, containing 250 mM of sucrose, 20 mM of Tris base, 1 mM of ethylenediaminetetraacetic acid (EDTA), and 1 mM of ethylene glycol tetraacetic acid (pH 7.4), using a ground glass pestle in a Dounce homogenizer. After six strokes, the homogenate was mixed 1:1 with 0.4% diethylamine (DEA) in a 100-mM NaCl solution before an additional six strokes, and then centrifuged at 135,000 g at 4° C. for 45 min. The supernatant (DEA-soluble fraction containing extracellular and cytosolic proteins) was collected and neutralized with 10% of 0.5M of Tris-HCl (pH 6.8). Aβ1-40 and Aβ1-42 were individually measured by enzyme-linked immunosorbent assay (ELISA) from the soluble fraction using commercially available kits (Biolegend; #SIG-38954 and #SIG-38956, respectively) according to the manufacturer instructions.

Glatiramer acetate [GA]
homing of GFP+ mo-MΦ to the CP and adjacent ventricular spaces (GFP+ mo-MΦ; weekly-GA vs vehicle-treated AD-Tg/CX3CR1GFP/+ controls): increased homing | GFP+ mo-MΦ in the brain parenchyma (immunohistochemistry) (GFP+ mo-MΦ; weekly-GA, AD-Tg/CX3CR1GFP/+ chimeras): accumulation at sites of cerebral plaque formation

CC1=C(/C=C/C(C)=C/C=C/C(C)=C/C(=O)O)C(C)(C)CCC1 [ATRA, All-trans retinoic acid]
cerebral sAβ1-40 and sAβ1-42 levels [1]: increased
